Assay results: patent publication US9034887B2, “Dihydroorotate dehydrogenase as antifungal drug target and quinazolinone-based inhibitors thereof” (F2G Limited, priority 2008, dated 2015)
Converted amounts (≈) assume the structure as drawn.

Key:
[1] = target: T1, Recombinant DHODH from human (Homo sapiens, UniProt Q02127); test: DHODH inhibition screen (DCIP reduction, 600 nm), human enzyme; format: biochemical; conditions: Table 3, read-out: IC50 values for Compound Examples 1 to 15 identified from screens, Human
T1 construct: His-tag; NusA (Nus-tag) fusion of vector pET43.1 (own knowledge of the vector) (N); made in house; host or cells: E. coli BL21 DE3
Description: (§1) 1. The following buffer and stock solution were prepared:
Coenzyme Q2 (Sigma) was dissolved in DMSO to give a concentration of 10 mg/ml. […] The stock solution was made with 127.36 μl DHO, 127.36 μl DCIP and 318.4 μl Coenzyme Q2, made up to 80 ml with Buffer A. Final concentrations in assay wells were; DHO, 500 μM; Coenzyme Q, 50 μM; DCIP, 100 μM.
2. […] Duplicate sets of plates were used such that one set received enzyme while a control set received no enzyme.
3. […] Then 20 μl of DHODH solution was added to all the +enzyme plates and 20 μl of Buffer A was added to all the control −enzyme plates.
(§2) 4. 20 μl of DHO/Coenzyme Q2/DCIP solution was added to all the wells, after which plates were incubated at room temperature for […] and then read on a Tecan Safire spectrophotometer at 600 nm.
(§3) Recombinant DHODH from human or C. albicans was assayed in the same way. It is necessary to adjust the enzyme concentration and reaction time to take into account variations in activity of enzyme batches, thus the incubation time was 20 minutes for the C. albicans enzyme and 34 minutes for the human enzyme.

[2] = target: Recombinant A. fumigatus DHODH (Aspergillus fumigatus, UniProt Q4X169); test: DHODH inhibition screen (DCIP reduction, 600 nm), A. fumigatus enzyme; format: biochemical
Description: as §1
Buffer A: 62.5 mM TrisHCl (pH8.0), 150 mM NaCl, 10% v/v glycerol
DHO/Coenzyme Q2/DCIP solution: 19.848 mg dihydroorotate (DHO; Sigma) was dissolved in 160 μl DMSO. Coenzyme Q2 (Sigma) was dissolved in DMSO to give a concentration of 10 mg/ml. 7.236 mg 2,6-dichloroindophenol (DCIP; Sigma) was dissolved in 160 μl DMSO. The stock solution was made with 127.36 μl DHO, 127.36 μl DCIP and 318.4 μl Coenzyme Q2, made up to 80 ml with Buffer A. Final concentrations in assay wells were; DHO, 500 μM; Coenzyme Q, 50 μM; DCIP, 100 μM.
2. Compounds were aliquotted into 384-well microtitre plates at a range of dilutions to give final concentrations in the assay of […]. Duplicate sets of plates were used such that one set received enzyme while a control set received no enzyme. Since compounds are frequently dissolved in DMSO or a DMSO/water mixture, assays were set up to give a final concentration of 1% (v/v) DMSO in wells.
3. Recombinant A. fumigatus DHODH was suspended in Buffer A to give a concentration of 1435.8 ng protein in 20 μl. Then 20 μl of DHODH solution was added to all the +enzyme plates and 20 μl of Buffer A was added to all the control −enzyme plates.
as §2
as §3, with “enzyme. Compounds are screened against a fungal and human enzyme to identify compounds which are selective for the fungal enzyme.” for “enzyme.”

Aspergillus flavus [3] = test: MIC in YAG medium, A. flavus; format: cell-based; conditions: 24 hrs at 35° C., >70% growth inhibition, read-out: MIC grade, A. flavus
Description: (§4) Between 1 and 5 mgs of compound were accurately weighed out into a sterile Eppendorf tube. The compound was dissolved in DMSO to give a solution containing 5 mg/mL. Tubes were stored at −20° C. until required.
(§5) On the day of testing thawed solutions were vortex mixed to ensure homogeneity. 30 μL of solution was removed and added to 570 μL of sterile water in a separate sterile Eppendorf. The thoroughly mixed solution was used to prepare a series of doubling dilutions in water, in a deep well plate. Thirteen replicate plates were prepared using a Minitrak by aspirating 20 μL from each well into eleven clear polystyrene 96 well plates.
(§6) Spores of Aspergillus spp. (Aspergillus fumigatus [two strains], Aspergillus terreus [two strains], Aspergillus niger and Aspergillus flavus) were harvested from cultures grown on Sabarauds agar for 5 days, and resuspended in PBS/Tween 80 to approx 1×10^7 cfu/mL. Each organism suspension was diluted in YAG medium (1% glucose, 1% ammonium chloride and 0.5% yeast extract) to 0.5-2×10^4 cfu/mL. 80 μL of an organism suspension was added to each well of the plate containing drug dilutions.
(§7) All plates were incubated for 24 hrs at 35° C. Growth was assessed by monitoring the optical density at 485 nm for each well. The MIC of a compound is the lowest drug concentration that inhibits growth of an organism by >70% compared with a drug free control. MICs are recorded as mg/L. In cases where the MIC of an organism is […] the MIC is repeated using a concentration range of 0.5-0.0005 mg/L.

Aspergillus fumigatus = test: MIC in YAG medium, A. fumigatus; format: cell-based; conditions: 24 hrs at 35° C., >70% growth inhibition, read-out: MIC grade, A. fumigatus
Description: as §4, §5, §6, §7

A. fumigatus 210 = test: MIC in YAG medium, A. fumigatus 210; format: cell-based; conditions: Aspergillus fumigatus, 24 hrs at 35° C., >70% growth inhibition, read-out: MIC grade, A. fumigatus 210
Description: as §4, §5, §6, §7

Aspergillus niger [4] = test: MIC in YAG medium, A. niger; format: cell-based; conditions: 24 hrs at 35° C., >70% growth inhibition, read-out: MIC grade, A. niger
Description: as §4, §5, §6, §7

Aspergillus terreus = test: MIC in YAG medium, A. terreus; format: cell-based; conditions: 24 hrs at 35° C., >70% growth inhibition, read-out: MIC grade, A. terreus
Description: as §4, §5, §6, §7

A. terreus 49 = test: MIC in YAG medium, A. terreus 49; format: cell-based; conditions: Aspergillus terreus, 24 hrs at 35° C., >70% growth inhibition, read-out: MIC grade, A. terreus 49
Description: as §4, §5, §6, §7

Aspergillus flavus [5] = test: MIC in RPMI medium, A. flavus; format: cell-based; conditions: 24-48 hrs at 35° C., >80% growth inhibition, read-out: MIC grade, A. flavus
Description: as §4, §5
(§8) Assays were also performed in RPMI medium. To perform MIC tests in this medium, dilutions of compounds are prepared in microtitre plates as described above. Fungal strains to be tested are grown and harvested in an identical manner to that described above, and each organism suspension was diluted in RPMI medium, containing 2% glucose and 0.135 M MOPS buffer (pH 7.0) to 0.5-2×10^4 cfu/mL, rather than in YAG medium. 80 μL of an organism suspension was added to each well of the plate containing drug dilutions.
(§9) All plates were incubated for 24-48 hrs at 35° C. Growth was assessed by monitoring the optical density at 485 nm for each well. […] The following organisms were tested: Aspergillus flavus, Aspergillus fumigatus AF293 and AF210, Aspergillus niger and Aspergillus terreus AT4 and AT49.

[6] = system: Aspergillus fumigatus AF293; test: MIC in RPMI medium, A. fumigatus; format: cell-based; conditions: 24-48 hrs at 35° C., >80% growth inhibition, read-out: MIC grade, A. fumigatus
Description: as §4, §5, §8, §9

[7] = system: Aspergillus fumigatus AF210; test: MIC in RPMI medium, A. fumigatus 210; format: cell-based; conditions: 24-48 hrs at 35° C., >80% growth inhibition, read-out: MIC grade, A. fumigatus 210
Description: as §4, §5, §8, §9

Aspergillus niger [8] = test: MIC in RPMI medium, A. niger; format: cell-based; conditions: 24-48 hrs at 35° C., >80% growth inhibition, read-out: MIC grade, A. niger
Description: as §4, §5, §8, §9

Aspergillus terreus AT4 = test: MIC in RPMI medium, A. terreus; format: cell-based; conditions: 24-48 hrs at 35° C., >80% growth inhibition, read-out: MIC grade, A. terreus
Description: as §4, §5, §8, §9

Aspergillus terreus AT49 = test: MIC in RPMI medium, A. terreus 49; format: cell-based; conditions: 24-48 hrs at 35° C., >80% growth inhibition, read-out: MIC grade, A. terreus 49
Description: as §4, §5, §8, §9

T1 sequence (Q02127 31-395 limits assumed): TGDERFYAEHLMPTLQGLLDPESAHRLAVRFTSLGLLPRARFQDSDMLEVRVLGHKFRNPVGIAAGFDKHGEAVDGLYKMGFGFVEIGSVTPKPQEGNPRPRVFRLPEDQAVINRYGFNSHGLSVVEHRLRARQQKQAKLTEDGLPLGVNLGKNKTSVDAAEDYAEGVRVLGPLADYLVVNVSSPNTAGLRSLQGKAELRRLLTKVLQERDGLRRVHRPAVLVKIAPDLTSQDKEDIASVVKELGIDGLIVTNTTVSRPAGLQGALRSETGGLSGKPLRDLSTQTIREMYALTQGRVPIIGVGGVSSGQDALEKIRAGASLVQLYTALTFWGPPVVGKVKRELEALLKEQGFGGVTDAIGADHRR
Sequence of Recombinant A. fumigatus DHODH (Q4X169 entry or part of it): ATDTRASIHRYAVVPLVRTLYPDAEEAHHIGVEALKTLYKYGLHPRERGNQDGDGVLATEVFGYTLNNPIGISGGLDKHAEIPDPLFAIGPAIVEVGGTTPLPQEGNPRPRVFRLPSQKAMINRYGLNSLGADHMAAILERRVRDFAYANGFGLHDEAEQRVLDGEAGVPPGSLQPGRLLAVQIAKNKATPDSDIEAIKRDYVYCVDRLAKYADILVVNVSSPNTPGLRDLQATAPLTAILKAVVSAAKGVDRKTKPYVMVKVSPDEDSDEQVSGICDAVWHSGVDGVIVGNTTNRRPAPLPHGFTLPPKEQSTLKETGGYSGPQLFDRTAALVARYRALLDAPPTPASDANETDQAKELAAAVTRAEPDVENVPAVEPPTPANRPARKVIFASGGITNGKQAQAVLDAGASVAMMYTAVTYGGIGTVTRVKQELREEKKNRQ

SMILES: CCSc1nc2cccc(C)c2c(=O)n1-c1ccccc1OC [Compound Example 14, 2-Ethylsulfanyl-3-(2-methoxy-phenyl)-5-methyl-3H-quinazolin-4-one]
- IC50 [1]: 32.1 µM
- IC50 [2]: 43.7 µM
- MIC (Aspergillus flavus [3]): 1 to 10 µg/mL (≈ 3.06 to 30.6 µM)
- MIC (Aspergillus fumigatus): < 1 µg/mL
- MIC (A. fumigatus 210): < 1 µg/mL
- MIC (Aspergillus niger [4]): < 1 µg/mL
- MIC (Aspergillus terreus): < 1 µg/mL
- MIC (A. terreus 49): < 1 µg/mL
- MIC (Aspergillus flavus [5]): > 10 µg/mL
- MIC [6]: 1 to 10 µg/mL (≈ 3.06 to 30.6 µM)
- MIC [7]: 1 to 10 µg/mL (≈ 3.06 to 30.6 µM)
- MIC (Aspergillus niger [8]): < 1 µg/mL
- MIC (Aspergillus terreus AT4): > 10 µg/mL
- MIC (Aspergillus terreus AT49): 1 to 10 µg/mL (≈ 3.06 to 30.6 µM)

SMILES: CCSc1nc2ccccc2c(=O)n1-c1ccccc1C(C)C [Compound Example 15, 2-Ethylsulfanyl-3-(2-isopropyl-phenyl)-3H-quinazolin-4-one]
- IC50 [1]: 23.2 µM
- IC50 [2]: 46.1 µM
- MIC (Aspergillus flavus [3]): > 10 µg/mL
- MIC (Aspergillus fumigatus): < 1 µg/mL
- MIC (A. fumigatus 210): < 1 µg/mL
- MIC (Aspergillus niger [4]): < 1 µg/mL
- MIC (Aspergillus terreus): 1 to 10 µg/mL (≈ 3.08 to 30.8 µM)
- MIC (A. terreus 49): < 1 µg/mL
- MIC (Aspergillus flavus [5]): > 10 µg/mL
- MIC [6]: < 1 µg/mL
- MIC [7]: 1 to 10 µg/mL (≈ 3.08 to 30.8 µM)
- MIC (Aspergillus niger [8]): < 1 µg/mL
- MIC (Aspergillus terreus AT4): > 10 µg/mL
- MIC (Aspergillus terreus AT49): > 10 µg/mL

SMILES: COc1ccccc1-n1c(SC(C)C)nc2ccc(C)cc2c1=O [Compound Example 2, 2-Isopropylsulfanyl-3-(2-methoxy-phenyl)-6-methyl-3H-quinazolin-4-one]
- MIC (Aspergillus flavus [3]): > 10 µg/mL
- MIC (Aspergillus fumigatus): < 1 µg/mL
- MIC (A. fumigatus 210): < 1 µg/mL
- MIC (Aspergillus niger [4]): < 1 µg/mL
- MIC (Aspergillus terreus): < 1 µg/mL
- MIC (A. terreus 49): < 1 µg/mL
- MIC (Aspergillus flavus [5]): > 10 µg/mL
- MIC [6]: 1 to 10 µg/mL (≈ 2.94 to 29.4 µM)
- MIC [7]: 1 to 10 µg/mL (≈ 2.94 to 29.4 µM)
- MIC (Aspergillus niger [8]): < 1 µg/mL
- MIC (Aspergillus terreus AT4): > 10 µg/mL
- MIC (Aspergillus terreus AT49): 1 to 10 µg/mL (≈ 2.94 to 29.4 µM)

SMILES: CCSc1nc2cccc(OC)c2c(=O)n1-c1ccccc1OC [Compound Example 12, 2-Ethylsulfanyl-5-methoxy-3-(2-methoxy-phenyl)-3H-quinazolin-4-one]
- IC50 [1]: 117 µM
- IC50 [2]: 26.9 µM
- MIC (Aspergillus flavus [3]): 1 to 10 µg/mL (≈ 2.92 to 29.2 µM)
- MIC (Aspergillus fumigatus): < 1 µg/mL
- MIC (A. fumigatus 210): < 1 µg/mL
- MIC (Aspergillus niger [4]): < 1 µg/mL
- MIC (Aspergillus terreus): 1 to 10 µg/mL (≈ 2.92 to 29.2 µM)
- MIC (A. terreus 49): < 1 µg/mL
- MIC (Aspergillus flavus [5]): > 10 µg/mL
- MIC [6]: 1 to 10 µg/mL (≈ 2.92 to 29.2 µM)
- MIC [7]: 1 to 10 µg/mL (≈ 2.92 to 29.2 µM)
- MIC (Aspergillus niger [8]): < 1 µg/mL
- MIC (Aspergillus terreus AT4): 1 to 10 µg/mL (≈ 2.92 to 29.2 µM)
- MIC (Aspergillus terreus AT49): 1 to 10 µg/mL (≈ 2.92 to 29.2 µM)
